Each structure is given as a SMILES string. Non-standard residues stand in square brackets, D forms with d. Residues, ends and D or L forms follow the SMILES beside them. Sar = CNCC(=O)O

From PubChem BioAssay AID1794819 come the findings set out here.

The experiment addresses Solute carrier family 15 member 2 (Homo sapiens) (UniProt Q16348). Put plainly: PEPT2 transporter activation by peptide substrates – membrane potential dye, HEK-293 overexpressing cells, pH 6.8/7.4, dose response (AID 1794819). As to conditions: HEK-293 SLC15A2 OE, FLIPR membrane potential dye, as substrate.

Solute carrier family 15 member 2 (Homo sapiens), sequence (Q16348 whole entry, looked up): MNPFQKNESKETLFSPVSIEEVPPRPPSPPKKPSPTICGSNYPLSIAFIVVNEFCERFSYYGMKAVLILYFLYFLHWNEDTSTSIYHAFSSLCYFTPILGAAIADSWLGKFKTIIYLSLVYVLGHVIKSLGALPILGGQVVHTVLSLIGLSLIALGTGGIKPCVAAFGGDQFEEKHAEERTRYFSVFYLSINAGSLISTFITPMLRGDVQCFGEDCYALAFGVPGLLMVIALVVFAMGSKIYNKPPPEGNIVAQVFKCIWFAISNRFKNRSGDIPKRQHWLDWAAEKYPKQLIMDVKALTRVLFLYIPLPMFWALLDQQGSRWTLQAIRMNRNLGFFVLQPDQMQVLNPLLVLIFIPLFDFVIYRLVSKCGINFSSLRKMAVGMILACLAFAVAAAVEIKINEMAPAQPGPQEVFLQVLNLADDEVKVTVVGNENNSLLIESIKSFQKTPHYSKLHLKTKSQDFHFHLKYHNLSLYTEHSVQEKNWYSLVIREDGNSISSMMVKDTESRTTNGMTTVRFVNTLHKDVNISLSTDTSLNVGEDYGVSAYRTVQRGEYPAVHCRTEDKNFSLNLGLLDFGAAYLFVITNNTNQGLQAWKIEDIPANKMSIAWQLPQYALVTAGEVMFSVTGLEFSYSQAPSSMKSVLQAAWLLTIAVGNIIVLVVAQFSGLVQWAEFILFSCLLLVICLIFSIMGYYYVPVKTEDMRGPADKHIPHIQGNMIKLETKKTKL

As usually defined, the EC50 is the concentration giving half of the maximal effect. For the compound `NCCC(=O)N[C@@H](Cc1cnc[nH]1)C(=O)O`, for the setting “pH 6.8”, the EC50 was 28 µM.
In the case of `CN(CC(=O)O)C(=O)CN` (H-Gly-[Sar]-OH), the EC50 was 39 µM (pH 6.8) and 123 µM (pH 7.4).
